# Key:
# Aβ40 and Aβ42 = experiment: Aβ aggregation inhibition in the presence or absence of metals, overall statements (FIG. 1); assay type: biochemical; conditions: two kinds of Aβ (Aβ40, Aβ42)
# Description: (§1) It was examined whether the benzene diamine derivatives of the present disclosure have inhibitory effects on Aβ aggregation. Aβ has two isoforms, and therefore, effects on Aβ40 and Aβ42 were examined, respectively. When metals are involved in protein folding, the probability of abnormal folding is high. In this case, the probability of Aβ aggregate formation is further increased.
# (§2) In order to perform molecular analysis of Aβ aggregation-inhibitory effects of the benzene diamine derivatives of the present disclosure, gel electrophoresis and Western blotting were performed by using anti-Aβ antibody (6E10). As a control group, compound 1
# (§3) In detail, each sample (10 μl) was separated on a 10-20% Tris-tricine gel (Invitrogen, Grand Island, N.Y., USA). After separation, the proteins were transferred onto a nitrocellulose membrane and blocked with bovine serum albumin (BSA, 3% w/v, Sigma-Aldrich, St Louis, Mo., USA) in Tris-buffered saline (TBS) containing 0.1% Tween-20 (TBS-T) at room temperature for 2 hours or at 4° C. overnight. The membrane was incubated in a 2% BSA (w/v in TBS-T) solution, together with anti-Aβ antibody (6E10, 1:2,000, Covance, Princeton, N.J., USA), at room temperature for 4 hours or at 4° C. overnight. The membrane was washed with TBS-T (3×, 10 min), and a secondary mouse antibody (1:5,000 in 2% BSA w/v in TBS-T; Cayman Chemical Company, Ann Arbor, Mich., USA) was added thereto, followed by incubation at room temperature for 1 hour. Thermo Scientific SuperSignal West Pico Chemiluminescent Substrate (Thermo Scientific, Rockford, Ill., USA), Biosesang ECL Plus kit (Biosesang, Gyeonggi-do, Republic of Korea), or homemade ECL kit53 were used for visualization, and ChemiDoc MP Imaging System (Bio-Rad, Hercules, Calif., USA) was used for detection.
# [1] = Antioxidant effect: free organic radical-scavenging activity (ABTS) using cell lysate; assay type: biochemical; conditions: Table 1 summary of Example 3; symbols not defined
# Experimental: It was examined whether the benzene diamine derivatives of the present disclosure have an antioxidant effect. It is known that reactive oxygen species induces oxidative stress in neuronal cells to cause neuronal cell death and causes protein misfolding to induce formation of Aβ aggregates. Therefore, compounds having antioxidant effects may be candidates for preventing or treating dementia.
# Free organic radical-scavenging activity of the compound was determined according to a protocol of Cayman Chemical Company (Ann Arbor, Mich., USA) with slight modifications. For antioxidant analysis using a cell lysate, cells were seeded in a 6-well plate, and cultured until they reached 80-90% confluence. A cell lysate was prepared according to a known method, washed with a cold phosphate buffer solution (PBS; pH 7.4, GIBCO), and then harvested. Cell pellet was produced by centrifugation (2,000 g, 4° C., 10 min). This pellet was sonicated (5 sec pulse, 20 sec interval, three times) in 2 ml of cold assay buffer S13 (5 mM potassium phosphate, pH 7.4; 0.9% NaCl; 0.1% glucose) on ice. A cell lysate was centrifuged at 4° C. for 10 minutes at 5,000 g. A supernatant was removed, and left on ice until use. To the cell lysate supernatant (10 μl), the compound, metmyoglobin, ABTS (2,2′-azino-bis-3-ethylbenzothiazoline-6-sulfonic acid), and hydrogen peroxide were sequentially added. The mixture was incubated on a shaker at room temperature for 5 minutes, and absorbance at 750 nm was measured. The compound at a final concentration of 45, 90, 135, 180, 225, or 330 μM and Trolox (6-hydroxy-2,5,7,8-tetramethyl-chroman-2-carboxylic acid, dissolved in EtOH) were used. Antioxidant activity was calculated according to the measured absorbance [% inhibition=100×(A0−A)/A0, A0 represents absorbance of the supernant of the cell lysate]. Each measurement was repeated in triplicate.
# [2] = tested on: human neuroblastoma cell line SK-N-BE(2)-M17 (M17); experiment: Cytotoxicity-inhibitory effect, MTT cell viability with Aβ with or without metals; assay type: cell-based; conditions: M17 cells, irrespective of Aβ isoforms and metals, FIG. 4
# Experimental: It was examined whether the benzene diamine derivatives of the present disclosure have cytotoxicity-inhibitory effect. Aβ aggregation and reactive oxygen species may cause cytotoxicity in neuronal cells, resulting in neuronal cell death.
# In detail, human neuroblastoma cell line SK-N-BE(2)-M17 (M17) (ATCC, Manassa, Va., USA) was cultured in a 1:1 minimum essential medium (MEM; GIBCO, Grand Island, N.Y., USA), Ham's F12K Kaighn's Modification Media (F12K; GIBCO) supplemented with 10% (v/v) fetal bovine serum (FBS; Atlanta Biologicals, Flowery Branch, Ga., USA), 100 U/mL penicillin (GIBCO), and […] streptomycin (GIBCO). M17 cells were seeded in a 96-well plate (150,000 in 100 μl per well), and treated with various concentrations of the compound (0-50 μM, 1% v/v DMSO) in the presence or absence of CuCl2 or ZnCl2 (a metal/ligand ratio of 1:1 or 1:2), and in the presence or absence of Aβ 40 (Aβ:metal:compound=10:10:20 μM). After incubation at 37° C. for 24 hours, 25 μl of MTT (3-(4,5-dimethylthiazol-2-yl)-2,5-diphenyltetrazolium bromide) (5 mg/mL in PBS, pH 7.4) (GIBCO) was added to each well, and each plate was incubated at 37° C. for 4 hours. […] Absorbance at 600 nm was measured by using a microplate reader.
# Cu(II)-Aβ = experiment: Aβ aggregation inhibition, gel electrophoresis and Western blotting with anti-Aβ antibody (6E10); assay type: biochemical; conditions: Table 1 summary of Example 2; symbols not defined
# Description: as §1, §2, §3
# Metal-free Aβ = experiment: as above; assay type: biochemical; conditions: Table 1 summary of Example 2; symbols not defined
# Description: as §1, §2, §3
# Zn(II)-Aβ = experiment: as above; assay type: biochemical; conditions: Table 1 summary of Example 2; symbols not defined
# Description: as §1, §2, §3
# PAMPA-BBB analysis = assay type: in vitro ADME
# Experimental: […] PAMPA-BBB analysis was performed by using a PAMPA Explorer kit (pION, Inc. Billerica, Mass., USA) according to the manufacture's protocol with slight modifications. […] The prepared solution was put in each well of a donor plate (200 μl, repeated 12 times). A polyvinylidene fluoride (PVDF, […]) filter membrane on an acceptor plate was coated with BBB-1 lipid formulation (5 μl, pION). The acceptor plate was placed on top of the donor plate to generate a “sandwich”. Brain sink buffer (BSB, 200 μl, pION) was added to each well of the acceptor plate. The sandwich-shaped plate was incubated for 4 hours at room temperature without stirring. UV-vis spectra of the solutions in the reference, acceptor, and donor plates were measured using a microplate reader. A PAMPA Explorer software [v. 3.8 (pION)] was used to calculate the −log Pe values for compounds. CNS±designations were assigned by comparison with compounds that were identified in previous reports.
"PAMPA-BBB permeability class (PAMPA-BBB analysis; 50 μM, incubation 4 hrs, U.V)","Papp at 4 h, 50 μM (PAMPA-BBB analysis; PAMPA, pH 7.4, 50 μM, incubation 4 hrs, U.V, read-out: Pe)",CNS± designation (PAMPA-BBB analysis; assigned by comparison with compounds identified in previous reports),SMILES,inhibitory effect on Aβ aggregation (Aβ40 and Aβ42),Reactive oxygen species (antioxidant effect) [1],effect in cytotoxicity-inhibition test (worded result) [2],Cu(II)-Aβ (inhibitory effect on Aβ aggregation) (Cu(II)-Aβ),Metal-free Aβ (inhibitory effect on Aβ aggregation) (Metal-free Aβ),Zn(II)-Aβ (inhibitory effect on Aβ aggregation) (Zn(II)-Aβ)
,,,"c1ccc(NCc2ccccn2)cc1 [Compound 1, reference compound]",did not show inhibitory effect on Aβ aggregation under any conditions,No effect,did not show excellent Aβ aggregation-inhibitory effect,,,
,,,"Nc1ccc(NCc2ccc(F)cn2)cc1 [Compound 3, N^1-((5-fluoropyridin-2-yl)methyl)benzene-1,4-diamine]","showed inhibitory effect on both two kinds of Aβ, irrespective of the kind and presence of metals",◯,,◯,◯,◯
,,,"CN(C)c1ccc(NCc2nccn2C)cc1 [Compound 4, N^1,N^1-dimethyl-N^4-((1-methyl-1H-imidazol-2-yl)methyl)benzene-1,4-diamine]",showed inhibitory effect on Aβ with metals,◯,,◯,,◯
,,,"CN(C)c1ccc(NCCS)cc1 [Compound 5, 2-((4-(dimethylamino)phenyl)amino)ethane-1-thiol]","showed inhibitory effect on both two kinds of Aβ, irrespective of the kind and presence of metals",◯,,◯,◯,◯
High,46.7 ×10⁻⁶ cm/s,(CNS+),"CC(=O)[C@H]1CC[C@H]2[C@@H]3CCC4=CC(=O)CC[C@]4(C)[C@H]3CC[C@]12C [Progesterone, reference compound]",,,,,,

# Source: patent publication US10464901B2, “Composition including benzene diamine derivative for preventing or treating degenerative brain diseases” (UNIST(ULSAN NATIONAL INSTITUTE OF SCIENCE AND TECHNOLOGY), priority 2017, dated 2019)
